Assay results from paper PMC5062470, “The mGluR2 positive allosteric modulator, SAR218645, improves memory and attention deficits in translational models of cognitive symptoms associated with schizophrenia” (Scientific Reports, 2016).

Assays:
rat mGluR2 = rat mGluR2 (Rattus norvegicus, UniProt P31421); assay: [3H]LY341495 binding to membranes; design: expressed in transfected cells; host or cells: inducible HEK-293 cell line (membranes); conditions: 10 μM SAR218645
Method: Binding assay was adapted from Johnson et al.[29]. […] Addition of 5–10 μg membrane protein initiated the incubation. After 45 min at room temperature, the incubation was terminated by rapid filtration followed by scintillation counting. Ki’s were calculated using 4-parameter curve fitting.

human mGluR7 = biological target: T1, human mGluR7 (Homo sapiens, UniProt Q14831); assay: Multispan Allosteric Profiling panel, Ca2+ (Gqi5); assay type: cell-based
T1 construct: host or cells: HEK293 co-expressing Gqi5

Sprague-Dawley rats = assay: DOI-induced glutamate release in the medial prefrontal cortex (microdialysis); assay type: in vivo
Method: Male Sprague-Dawley rats (320–350 g) were housed two per cage. Two days before the dialysis assay, they were anesthetized with chloral hydrate (400 mg/kg, ip, 10 ml/kg of body weight) and placed in a stereotaxic apparatus (David Kopf Instruments, Tujunga, CA, USA). Anesthesia was maintained throughout surgery as necessary with supplementary doses of chloral hydrate. Body temperature was monitored by a rectal probe and adjusted (37 ± 1 °C) by a homeothermic blanket. The skull and the dura were opened to allow the implantation of a guide cannula in the medial prefrontal cortex (PFC). The coordinates were […] to bregma, […] to the midline and […] the dural surface. A dental cement cap held the cannula in place, and three screws anchored the cap to the skull. The rats were individually housed post-surgery and allowed two days of recovery before the start of the experiment. On the day of the experiment, animals were placed in a microdialysis bowl, the cannula cap was removed, and a […] (CMA12, Carnegie Medicine AB, Stockholm, Sweden) was inserted into the guide cannula. The probe was perfused at a constant flow rate of 1 μl/min using a microinjection pump (CMA100; Carnegie Medicine AB) with a gassed Ringer’s solution containing (in mM): NaCl (145), KCl (2.7), CaCl2 (1.2), MgCl2 (1), Na2HPO4 (2.3), […]; pH 7.4. Microdialysis sampling started 120 min after probe placement into the PFC. The outlet of the probe was connected to an on-line derivatization system allowing direct analysis of dialysate samples collected every 15 min. […] CE experiments were performed on a P/ACE MDQ capillary electrophoresis system (Beckman Coulter, Villepinte, France) coupled to an external Zetalif fluorescence detector (Picometrics S.A., Toulouse, France). […] The emission intensity was measured at a wavelength of 490 nm. […] Dose-effect of SAR218645 was evaluated by comparing the area under the curve during the first 150 min after po injection of the drug or vehicle. […]

Swiss mice = assay: Novel object recognition task, MK-801-induced deficit; assay type: in vivo
Description: The test apparatus was based on that described by Ennaceur and Delacour[37] in rats and adapted for use in mice[38]. The apparatus consisted of a uniformly lit (20 lux) PVC enclosure (52 L × 52 W × 40 H cm) with a video camera positioned 160 cm above the bench. The objects to be discriminated were a metal triangle (3.3 cm height, 5.5 cm wide) and a plastic piece of construction game (3 cm height and 3 cm wide). The observer was located in an adjacent room fitted with a video monitoring system. The experiment consisted of 3 sessions. During the first session, male Swiss mice (25–30 g) were allowed to become familiar with the experimental environment for 5 min (S1). Time spent active (animal moving around with or without sniffing and exploration) was measured. […] Times spent exploring the familiar and novel objects were recorded. […] Data (time exploring each of the two objects, in seconds) were analyzed with a two-way ANOVA, with the treatment and the object as the between factors, followed by a Winer analysis for comparing the time spent exploring the familiar versus the novel object for each treatment. […]

human mGluR2 = human mGluR2 (Homo sapiens, UniProt Q14416); assay: Ca2+ mobilization assay, HEK293 cells expressing human mGluR2/Gα16; assay type: cell-based; design: expressed in transfected cells; host or cells: HEK293 Flp-in-T-REx (inducible), co-expressing Gα16
human mGluR2, sequence (Q14416 19-872): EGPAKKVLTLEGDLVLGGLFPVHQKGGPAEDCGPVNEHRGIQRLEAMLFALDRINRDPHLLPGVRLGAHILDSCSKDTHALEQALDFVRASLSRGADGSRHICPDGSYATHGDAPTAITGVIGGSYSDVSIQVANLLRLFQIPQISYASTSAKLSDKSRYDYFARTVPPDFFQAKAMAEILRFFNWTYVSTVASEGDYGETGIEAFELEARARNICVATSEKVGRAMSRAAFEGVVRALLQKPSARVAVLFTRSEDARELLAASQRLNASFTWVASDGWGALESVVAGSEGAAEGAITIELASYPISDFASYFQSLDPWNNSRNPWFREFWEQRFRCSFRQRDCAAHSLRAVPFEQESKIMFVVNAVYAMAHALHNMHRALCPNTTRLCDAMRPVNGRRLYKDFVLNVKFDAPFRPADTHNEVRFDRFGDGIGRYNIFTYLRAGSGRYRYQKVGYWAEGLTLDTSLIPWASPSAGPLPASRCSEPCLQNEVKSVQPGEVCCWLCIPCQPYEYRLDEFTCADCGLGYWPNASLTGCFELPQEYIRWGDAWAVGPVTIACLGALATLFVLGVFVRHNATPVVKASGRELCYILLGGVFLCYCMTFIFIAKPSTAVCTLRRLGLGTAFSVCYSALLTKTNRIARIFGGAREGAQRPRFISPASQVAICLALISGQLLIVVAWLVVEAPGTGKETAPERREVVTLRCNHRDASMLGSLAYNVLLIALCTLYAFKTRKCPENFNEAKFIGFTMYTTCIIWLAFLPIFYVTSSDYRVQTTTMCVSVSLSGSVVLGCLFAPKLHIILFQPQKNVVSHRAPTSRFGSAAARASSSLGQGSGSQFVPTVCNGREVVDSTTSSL

rat mGluR2, sequence (P31421 19-872): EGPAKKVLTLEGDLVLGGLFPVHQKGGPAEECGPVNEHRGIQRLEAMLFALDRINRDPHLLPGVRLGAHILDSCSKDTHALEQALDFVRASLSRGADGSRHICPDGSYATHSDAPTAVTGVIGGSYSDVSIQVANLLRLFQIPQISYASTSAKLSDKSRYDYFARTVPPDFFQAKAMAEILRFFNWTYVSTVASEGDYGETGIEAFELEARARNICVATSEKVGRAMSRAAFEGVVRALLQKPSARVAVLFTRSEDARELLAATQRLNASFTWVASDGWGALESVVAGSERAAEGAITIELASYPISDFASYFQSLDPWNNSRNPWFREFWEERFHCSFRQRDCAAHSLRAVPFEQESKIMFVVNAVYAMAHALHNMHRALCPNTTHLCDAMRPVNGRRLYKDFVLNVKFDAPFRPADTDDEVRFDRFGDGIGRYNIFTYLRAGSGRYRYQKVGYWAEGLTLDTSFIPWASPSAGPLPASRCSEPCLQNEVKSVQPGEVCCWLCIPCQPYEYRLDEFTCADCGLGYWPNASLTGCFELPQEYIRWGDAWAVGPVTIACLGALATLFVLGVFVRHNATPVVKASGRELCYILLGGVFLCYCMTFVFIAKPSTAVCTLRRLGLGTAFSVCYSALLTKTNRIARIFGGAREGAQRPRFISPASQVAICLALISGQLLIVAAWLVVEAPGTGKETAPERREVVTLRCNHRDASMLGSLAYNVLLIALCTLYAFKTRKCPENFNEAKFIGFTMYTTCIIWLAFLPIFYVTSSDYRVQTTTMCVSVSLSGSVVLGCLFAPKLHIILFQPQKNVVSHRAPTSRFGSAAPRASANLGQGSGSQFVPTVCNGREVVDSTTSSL
T1 sequence (Q14831 35-915): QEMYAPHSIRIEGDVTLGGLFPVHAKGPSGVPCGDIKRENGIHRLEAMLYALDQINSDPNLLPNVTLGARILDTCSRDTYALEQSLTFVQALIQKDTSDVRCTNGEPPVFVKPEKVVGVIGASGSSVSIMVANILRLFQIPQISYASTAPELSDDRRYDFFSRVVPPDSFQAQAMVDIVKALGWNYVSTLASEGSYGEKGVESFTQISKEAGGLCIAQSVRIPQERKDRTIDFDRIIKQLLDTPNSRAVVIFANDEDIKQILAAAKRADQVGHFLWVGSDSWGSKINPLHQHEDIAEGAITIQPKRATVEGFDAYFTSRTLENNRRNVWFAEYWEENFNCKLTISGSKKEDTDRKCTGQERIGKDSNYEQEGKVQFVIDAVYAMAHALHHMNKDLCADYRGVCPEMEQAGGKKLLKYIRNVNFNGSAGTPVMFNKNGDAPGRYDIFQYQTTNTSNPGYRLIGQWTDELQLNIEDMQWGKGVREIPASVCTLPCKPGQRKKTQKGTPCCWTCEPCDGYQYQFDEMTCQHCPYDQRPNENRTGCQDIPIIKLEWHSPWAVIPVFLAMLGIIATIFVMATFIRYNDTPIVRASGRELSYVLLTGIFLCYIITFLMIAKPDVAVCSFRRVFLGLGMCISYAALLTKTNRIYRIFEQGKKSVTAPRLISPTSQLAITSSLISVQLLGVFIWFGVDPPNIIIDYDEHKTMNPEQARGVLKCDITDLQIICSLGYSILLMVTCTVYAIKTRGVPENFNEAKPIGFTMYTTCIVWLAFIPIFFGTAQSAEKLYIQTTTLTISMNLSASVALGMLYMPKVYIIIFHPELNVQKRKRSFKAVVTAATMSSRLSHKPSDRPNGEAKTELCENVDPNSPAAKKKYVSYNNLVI

## CC1(C)CCc2cc(OC[C@@H]3Cn4ccc(=O)nc4O3)ccc21 [SAR218645, (S)-2-(1,1-dimethyl-indan-5-yloxymethyl)-2,3-dihydro-oxazolo[3,2-a]pyrimidin-7-one]
Rat mGluR2
  inhibition of [3H]LY341495 binding by compound alone: not inhibited
  lowering of the Ki of glutamate: 3.5 fold
Rat mGluR2; Fig. 5B
  maximal binding, glutamate in the presence of SAR218645: 90%
Human mGluR7; 10 μM SAR218645
  effect on glutamate-induced activation: no effect
Human mGluR7; SAR218645 alone
  calcium response to compound alone: did not elicit a calcium response
Sprague-Dawley rats; 3 mg/kg po, 30 min before DOI 2.5 mg/kg sc
  effect on DOI-induced increase in extracellular glutamate (time-course): blocked significantly
Sprague-Dawley rats; 30 mg/kg po, P < 0.05
  effect on glutamate AUC during 150 min: reaching statistical significance
Sprague-Dawley rats; dose-range 0.3–30, po, Sprague-Dawley rats
  Minimal active dose: 3 mg/kg
Swiss mice; 0.01, 0.03 and 0.1 mg/kg po, coadministered with MK-801 (0.0125 mg/kg, ip)
  effect on preferential investigation of the novel object: significantly restored
Swiss mice; dose-range 0.01–1, po, Swiss mice
  Minimal active dose: 0.01 mg/kg
Human mGluR2
  maximal potentiation of the glutamate response: approximately 10 fold
